# Measured values published in the supplement of paper PMC11061612.
# Columns and labels:
# Experiment in all cases: combination Emax (second highest fraction inhibited in the dose matrix, 72 h); higher = more inhibition; extreme values may be limits of the assay
# [1] = system: NCI-H322M (Lung Adenocarcinoma)
# How it was run: (§1)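 Cell lines grown in DMEM/F12 or RPMI with 10% FBS were plated in 1536-well plates and held 24 hours at 37°C, 5% CO2 before 72 hours of exposure to two-drug dose matrices, with DMSO typically at 0.2%. CellTiter-Glo 2.0 luminescence gave viability, which was converted to inhibition. Vehicle wells were set to 0 and blank wells to 1. Combination Emax is the second-highest inhibition in the matrix, and Bliss excess is the observed combination effect minus the expected EA + EB − EA·EB, where EA and EB are the single-agent effects.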
# [2] = system: KYSE-150 (Esophageal Squamous Cell Carcinoma)
# How it was run: as §1
# [3] = system: ASH-3 (Thyroid Gland Carcinoma)
# How it was run: as §1
# [4] = system: A704 (Kidney Carcinoma)
# How it was run: as §1
# [5] = system: NCI-H2405 (Lung Adenocarcinoma)
# How it was run: as §1
# [6] = system: NCI-H1573 (Lung Adenocarcinoma)
# How it was run: as §1
# [7] = system: PF-382 (T-Lymphoblastic Leukemia)
# How it was run: as §1
# [8] = system: EW-18 (Ewing's Sarcoma)
# How it was run: as §1
# [9] = system: HC-1 (Other Blood Carcinomas)
# How it was run: as §1
# [10] = system: DG-75 (Burkitt's Lymphoma)
# How it was run: as §1
# [11] = system: HSC-2 (Oral Cavity Carcinoma)
# How it was run: as §1
# [12] = system: NB7 (Neuroblastoma)
# How it was run: as §1
# [13] = system: JHH-7 (Hepatocellular Carcinoma)
# How it was run: as §1
# [14] = system: BV-173 (Chronic Myelogenous Leukemia)
# How it was run: as §1
# [15] = system: SNU-C1 (Colorectal Carcinoma)
# How it was run: as §1
# [16] = system: BT-20 (Breast Carcinoma)
# How it was run: as §1
# [17] = system: VMRC-LCD (Lung Adenocarcinoma)
# How it was run: as §1
# [18] = system: EMC-BAC-2 (Non-Small Cell Lung Carcinoma)
# How it was run: as §1
# [19] = system: EW-3 (Ewing's Sarcoma)
# How it was run: as §1
SMILES,combination Emax [1],combination Emax [2],combination Emax [3],combination Emax [4],combination Emax [5],combination Emax [6],combination Emax [7],combination Emax [8],combination Emax [9],combination Emax [10],combination Emax [11],combination Emax [12],combination Emax [13],combination Emax [14],combination Emax [15],combination Emax [16],combination Emax [17],combination Emax [18],combination Emax [19]
"COc1cc2c(cc1OCCCCCOc1cc3c(cc1OC)C(=O)N1C=C(C)C[C@H]1C=N3)N=C[C@@H]1CC(C)=CN1C2=O [SG3199] + O=C(c1cc(Cc2n[nH]c(=O)c3ccccc23)ccc1F)N1CCN(C(=O)C2CC2)CC1 [Olaparib] (first compound max 0.001 µM, 7x7, partner max 10 µM)",0.256,0.183,0.0979,0.202,0.081,0.0928,0.259,0.0839,0.498,0.201,0.116,0.166,0.108,0.932,0.0546,0.154,0.0613,0.169,0.634
"C[C@@H]1COCCN1c1cc(C2([S@](C)(=N)=O)CC2)nc(-c2ccnc3[nH]ccc23)n1 [AZD6738] + O=C(c1cc(Cc2n[nH]c(=O)c3ccccc23)ccc1F)N1CCN(C(=O)C2CC2)CC1 [Olaparib] (first compound max 10 µM, 7x7, partner max 10 µM)",0.697,0.567,0.652,0.438,0.28,0.531,0.916,0.666,0.76,0.835,0.721,0.944,0.339,0.988,0.347,0.415,0.562,0.446,0.962
"COc1cccc(OCCCN)c1-c1cc(Nc2cnc(C#N)cn2)n[nH]1 [Prexasertib] + Cc1cc2ncnn2cc1Nc1ncc2c(n1)n(C1CCOCC1)c(=O)n2C [AZD7648] (first compound max 1 µM, 7x7, partner max 10 µM)",0.979,0.513,0.648,0.504,0.412,0.668,0.934,0.742,1,0.923,0.778,0.842,0.458,0.964,0.759,0.646,0.749,0.538,0.736
"CN(C)CCCOc1ccc(-c2ccc3ncc4c(c3c2)n(C2CCOCC2)c(=O)n4C)cn1 [AZD0156] + C[C@@H]1COCCN1C2=NC(=NC(=C2)C3(CC3)[S@](=N)(=O)C)C4=C5C=CNC5=NC=C4 [AZD6738] (first compound max 1 µM, 7x7, partner max 10 µM)",0.922,0.589,0.719,0.392,0.229,0.58,0.855,0.727,0.77,0.939,0.696,0.804,0.32,0.975,0.489,0.449,0.534,0.676,0.751
"CCN(CCO)CCCOc1ccc2c(Nc3cc(CC(=O)Nc4cccc(F)c4)[nH]n3)ncnc2c1 [AZD2811] + C[C@@H]1COCCN1C2=NC(=NC(=C2)C3(CC3)[S@](=N)(=O)C)C4=C5C=CNC5=NC=C4 [AZD6738] (first compound max 1 µM, 7x7, partner max 10 µM)",0.852,0.533,0.486,0.43,0.26,0.479,0.916,0.743,0.789,0.841,0.68,0.603,0.275,0.994,0.435,0.443,0.708,0.459,0.724
"C=CCn1c(=O)c2cnc(Nc3ccc(N4CCN(C)CC4)cc3)nc2n1-c1cccc(C(C)(C)O)n1 [AZD1775] + O=C(c1cc(Cc2n[nH]c(=O)c3ccccc23)ccc1F)N1CCN(C(=O)C2CC2)CC1 [Olaparib] (first compound max 1 µM, partner max 10 µM)",0.666,0.493,0.262,0.462,0.192,0.325,0.976,0.522,0.983,0.694,0.63,0.632,0.293,0.96,0.313,0.518,0.34,0.269,0.661
"CCc1c2c(nc3ccc(O)cc13)-c1cc3c(c(=O)n1C2)COC(=O)[C@]3(O)CC [SN-38] + CN(C)CCCOc1ccc(-c2ccc3ncc4c(c3c2)n(C2CCOCC2)c(=O)n4C)cn1 [AZD0156] (first compound max 0.3 µM, 7x7, partner max 1 µM)",0.811,0.732,0.844,0.504,0.448,0.228,0.994,0.633,1,0.856,0.965,0.913,0.208,0.981,0.419,0.81,0.0996,0.594,0.838
"Cc1cc2ncnn2cc1Nc1ncc2c(n1)n(C1CCOCC1)c(=O)n2C [AZD7648] + C=CCn1c(=O)c2cnc(Nc3ccc(N4CCN(C)CC4)cc3)nc2n1-c1cccc(C(C)(C)O)n1 [AZD1775] (first compound max 10 µM, partner max 1 µM)",0.923,0.643,0.324,0.478,0.192,0.308,0.957,0.553,0.992,0.833,0.596,0.575,0.392,0.964,0.392,0.559,0.425,0.392,0.329
"Cc1cc2ncnn2cc1Nc1ncc2c(n1)n(C1CCOCC1)c(=O)n2C [AZD7648] + C[C@@H]1COCCN1C2=NC(=NC(=C2)C3(CC3)[S@](=N)(=O)C)C4=C5C=CNC5=NC=C4 [AZD6738] (first compound max 10 µM, 7x7, partner max 10 µM)",0.944,0.561,0.509,0.395,0.241,0.592,0.858,0.636,0.616,0.885,0.596,0.572,0.369,0.97,0.38,0.479,0.579,0.513,0.755
"COc1cccc(OCCCN)c1-c1cc(Nc2cnc(C#N)cn2)n[nH]1 [Prexasertib] + C[C@@H]1COCCN1C2=NC(=NC(=C2)C3(CC3)[S@](=N)(=O)C)C4=C5C=CNC5=NC=C4 [AZD6738] (first compound max 1 µM, 7x7, partner max 10 µM)",0.994,0.621,0.705,0.504,0.337,0.669,0.917,0.745,1,0.942,0.741,0.808,0.4,0.964,0.73,0.599,0.753,0.497,0.819
"COc1cccc(OCCCN)c1-c1cc(Nc2cnc(C#N)cn2)n[nH]1 [Prexasertib] + O=C(c1cc(Cc2n[nH]c(=O)c3ccccc23)ccc1F)N1CCN(C(=O)C2CC2)CC1 [Olaparib] (first compound max 1 µM, 7x7, partner max 10 µM)",0.83,0.61,0.694,0.421,0.368,0.608,0.897,0.764,1,0.827,0.782,0.749,0.442,0.994,0.663,0.799,0.679,0.44,0.815
"COc1cccc2c1C(=O)c1c(O)c3c(c(O)c1C2=O)C[C@@](O)(C(=O)CO)C[C@@H]3O[C@H]1C[C@H](N)[C@H](O)[C@H](C)O1 [Doxorubicin] + Cc1cc2ncnn2cc1Nc1ncc2c(n1)n(C1CCOCC1)c(=O)n2C [AZD7648] (first compound max 1 µM, 7x7, partner max 10 µM)",0.792,0.958,0.912,0.176,0.201,0.255,0.989,0.754,0.975,0.882,0.89,0.826,0.411,0.994,0.407,0.769,0.612,0.829,0.788
"COc1cccc(OCCCN)c1-c1cc(Nc2cnc(C#N)cn2)n[nH]1 [Prexasertib] + CN(C)CCCOc1ccc(-c2ccc3ncc4c(c3c2)n(C2CCOCC2)c(=O)n4C)cn1 [AZD0156] (first compound max 1 µM, 7x7, partner max 1 µM)",0.982,0.365,0.565,0.485,0.406,0.652,0.9,0.761,1,0.964,0.776,0.858,0.411,0.97,0.751,0.626,0.751,0.591,0.683
